This test relates to Streptococcus mutans biofilm. Put plainly: Biofilm disruption test (modified MBEC assay). The test is classed as cell-based, Streptococcus mutans (ATCC 25175). The source says: In some embodiments, disclosed compositions can prevent, inhibit, disrupt, disperse, reduce the formation or maintenance of a biofilm in an area contacted with the composition. In some embodiments, a composition can prevent, inhibit, disrupt, disperse, reduce the formation or maintenance of a biofilm in a mouth of a user where the composition was applied to the mouth when compared to a mouth without the composition applied thereto. […] Preventing, inhibiting, disrupting, dispersing, reducing, controlling, or some combination thereof the formation or maintenance of biofilms can be measured using a modified version of the MBEC assay (described in ASTM E2799), which measures disruption of Streptococcus mutans biofilms grown on special pegs in a microtiter plate. […] The biofilm remaining on each peg following treatment is quantified by measuring the amount of fluorescently labeled bacteria that eluted from the pegs at the end of the treatment cycles (see example). […] Decreasing plaque buildup can be measured by a variety of methods in vivo including for example plaque scoring, dyeing of plaque, etc.
This method utilizes the high throughput MBEC assay system (Innovotech, Calgary, AB Canada). The method evaluates efficacy of a treatment in disrupting biofilm by quantifying the amount of fluorescent-labeled biofilm remaining on MBEC inoculator pegs after exposure to relevant treatment conditions. […]

For `N=C(NCCCCCCNC(=N)NC(=N)Nc1ccc(Cl)cc1)NC(=N)Nc1ccc(Cl)cc1.O=C(O)[C@H](O)[C@@H](O)[C@H](O)[C@H](O)CO.O=C(O)[C@H](O)[C@@H](O)[C@H](O)[C@H](O)CO` [0.1% CHG, chlorhexidine gluconate], for the setting “normalized to PBS negative control in the same plate, low value = more biofilm disruption”, the “Normalized Relative Fluorescence (%)” value is on record as 3.8%. In addition, the “Fluorescence intensity of Alexafluor 488-labeled S. mutans biofilm matrix” value (two 1-minute treatment cycles, biofilm eluted from MBEC pegs, ex 488 nm, em 525 nm) is listed as 1281 a.u.

(Values after patent US11801231B2, “Oral compositions and methods of use” (3M INNOVATIVE PROPERTIES COMPANY, priority 2017, dated 2023).)
